Assays:
full-length human RORγt = target: T1, full-length human RORγt (Homo sapiens, UniProt P51449); assay: RORγt (full-length human) Reporter Assay, Conditions A; type: cell-based; conditions: for IC50: HEK293T cells, GAL4-DBD-RORγt, luciferase, read-out: RORγt (FL) Reporter Assay A, IC50; for inhibition at 6 µM: read-out: RORγt (FL) Reporter Assay A, % inhibition @ 6 μM, 6 μM compound; for inhibition at 2 µM: read-out: RORγt (FL) Reporter Assay A, % inhibition (* at 2 μM), 2 μM compound concentration (footnote *)
T1 construct: expressed in transfected cells; host or cells: HEK293T, transiently transfected with pCMV-BD-ROR
T1 sequence (P51449 1-497 isoform P51449-2): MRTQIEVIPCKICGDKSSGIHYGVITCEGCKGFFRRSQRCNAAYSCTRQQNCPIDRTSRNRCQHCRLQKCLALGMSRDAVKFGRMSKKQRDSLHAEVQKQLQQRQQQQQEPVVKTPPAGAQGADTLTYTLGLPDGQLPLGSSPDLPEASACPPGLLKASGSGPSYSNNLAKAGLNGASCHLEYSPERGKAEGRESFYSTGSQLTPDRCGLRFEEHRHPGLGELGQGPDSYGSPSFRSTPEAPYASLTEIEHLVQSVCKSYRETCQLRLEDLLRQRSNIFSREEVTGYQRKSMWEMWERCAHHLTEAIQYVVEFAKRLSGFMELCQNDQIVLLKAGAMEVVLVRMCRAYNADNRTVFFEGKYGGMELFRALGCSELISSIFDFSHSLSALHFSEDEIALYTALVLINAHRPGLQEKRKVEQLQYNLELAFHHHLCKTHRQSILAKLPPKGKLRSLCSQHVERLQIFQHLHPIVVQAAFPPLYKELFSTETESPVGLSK
Description: After overnight (16 to 20 hours) incubation, media were removed and cells were lysed with 20 μL 1× Passive Lysis Buffer (Promega) for 10-15 minutes. Luminescence was measured using a BMG LUMIstar OPTIMA plate reader, after addition of 75 μL/well firefly luciferase buffer, followed by 75 μL/well Renilla luciferase buffer. To calculate the effect of compounds on RORγt activity, firefly values were normalized against values of DMSO only and values of reference compound at saturating concentration, then further normalized against Renilla signals. IC50s were generated by plotting final Renilla normalized data against compound concentration and percent inhibition was calculated against DMSO control.

[1] = target: T2, human RORγt ligand binding domain (RORγt LBD) (Homo sapiens, UniProt P51449); assay: RORγt ThermoFluor assay; conditions: estimated from thermal shift concentration response
T2 construct: His-tag (N); TurboTEV protease cleavage site (ENLYFQG) (N); made in house; host or cells: E. coli (pHIS1, a modified pET expression vector)
T2 sequence (P51449 with tags, fused parts or gaps): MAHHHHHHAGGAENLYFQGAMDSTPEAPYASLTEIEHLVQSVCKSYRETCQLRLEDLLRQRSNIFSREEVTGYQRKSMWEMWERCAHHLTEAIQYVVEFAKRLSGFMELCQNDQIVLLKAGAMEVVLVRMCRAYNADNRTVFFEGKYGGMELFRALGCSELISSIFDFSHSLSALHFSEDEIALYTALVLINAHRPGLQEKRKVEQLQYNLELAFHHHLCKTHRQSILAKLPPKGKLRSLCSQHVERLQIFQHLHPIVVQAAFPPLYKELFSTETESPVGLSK
Description: This approach is applicable to a wide variety of systems, and rigorous in theoretical interpretation through quantitation of equilibrium binding constants (KD).
The shift in the melting point described as a ΔTm is proportional to the concentration and affinity of the ligand.
Protein and compound solutions are dispensed into black 384-well polypropylene PCR microplates (Abgene) and overlayed with silicone oil (1 μL, Fluka, type DC 200) to prevent evaporation.
Bar-coded assay plates are robotically loaded onto a thermostatically controlled PCR-type thermal block and then heated at a typical ramp-rate of 1° C./min for all experiments.
Fluorescence was measured by continuous illumination with UV light (Hamamatsu LC6) supplied via fiber optic and filtered through a band-pass filter (380-400 nm; >6 OD cutoff). Fluorescence emission of the entire 384-well plate was detected by measuring light intensity using a CCD camera (Sensys, Roper Scientific) filtered to detect 500±25 nm, resulting in simultaneous and independent readings of all 384 wells. Images were collected at each temperature, and the sum of the pixel intensity in a given area of the assay plate was recorded versus temperature. Reference wells contained RORγt without compounds, and the assay conditions were as follows: • 0.065 mg/mL RORγt • 60 μM 1,8-ANS • 100 mM Hepes, pH 7.0 • 10 mM NaCl • 2.5 mM GSH • 0.002% Tween-20
Project compounds were arranged in a pre-dosed mother plate (Greiner Bio-one) wherein compounds are serially diluted in 100% DMSO by 1:2 from a high concentration of 10 mM over 12 columns within a series (column 12 is a reference well containing DMSO, no compound). The compounds were robotically dispensed directly into assay plates (1×=46 nL) using a Hummingbird capillary liquid handling instrument (Digilab). Following compound dispense, protein and dye in buffer was added to achieve the final assay volume of 3 μL, followed by 1 μL of silicone oil.

Compound | IC50 (full-length human RORγt) [nM] | inhibition at 6 µM (full-length human RORγt) [%] | Kd [1] [nM] | inhibition at 2 µM (full-length human RORγt) [%]
C[C@H](NS(=O)(=O)c1ccc(-c2sc(-c3nnc(CS(C)(=O)=O)o3)nc2C(=O)N2CCC(F)(F)CC2)c(Cl)c1Cl)C(F)(F)F [Example 1/4, (S)-2,3-Dichloro-4-(4-(4,4-difluoropiperidine-1-carbonyl)-2-(5-((methylsulfonyl)methyl)-1,3,4-oxadiazol-2-yl)thiazol-5-yl)-N-(1,1,1-trifluoropropan-2-yl)benzenesulfonamide] | 55 | 101 | 4.7 | –
C[C@H](NS(=O)(=O)c1ccc(-c2sc(-c3nnc(C(C)(C)O)o3)nc2C(=O)N2CCC(F)(F)CC2)c2c1CCCO2)C(F)(F)F [Example 24, 8-(4-(4,4-Difluoropiperidine-1-carbonyl)-2-(5-(2-hydroxypropan-2-yl)-1,3,4-oxadiazol-2-yl)thiazol-5-yl)-N—((S)-1,1,1-trifluoropropan-2-yl)chroman-5-sulfonamide] | 190 | 97 | 5.2 | –
CC[C@H](NS(=O)(=O)c1ccc(-c2sc(-c3nnc(C(C)(C)O)o3)nc2C(=O)N2CCC(F)(F)CC2)c(F)c1C(F)F)C(F)(F)F [Example 6/16, (S)-2-(Difluoromethyl)-4-(4-(4,4-difluoropiperidine-1-carbonyl)-2-(5-(2-hydroxypropan-2-yl)-1,3,4-oxadiazol-2-yl)thiazol-5-yl)-3-fluoro-N-(1,1,1-trifluorobutan-2-yl)benzenesulfonamide] | 38 | 104 | 0.47 | –
CC[C@H](NS(=O)(=O)c1ccc(-c2sc(-c3nnc(C(C)(C)O)o3)nc2C(=O)N(CC)CC)c(Cl)c1F)C(F)(F)F [Example 6/20, (S)-5-(2-Chloro-3-fluoro-4-(N-(1,1,1-trifluorobutan-2-yl)sulfamoyl)phenyl)-N,N-diethyl-2-(5-(2-hydroxypropan-2-yl)-1,3,4-oxadiazol-2-yl)thiazole-4-carboxamide] | 43 | – | 11 | 102
CC[C@H](NS(=O)(=O)c1ccc(-c2sc(-c3noc(CC(C)(C)C(=O)O)n3)nc2C(=O)N2CCC(F)(F)CC2)c(C(F)F)c1Cl)C(F)(F)F [Example 10/1, (S)-3-(3-(5-(3-Chloro-2-(difluoromethyl)-4-(N-(1,1,1-trifluorobutan-2-yl)sulfamoyl)phenyl)-4-(4,4-difluoropiperidine-1-carbonyl)thiazol-2-yl)-1,2,4-oxadiazol-5-yl)-2,2-dimethylpropanoic acid] | 66 | 104 | 0.0014 | –
CC[C@H](NS(=O)(=O)c1ccc(-c2sc(-c3noc(CC(C)(C)O)n3)nc2C(=O)N2CCC(F)CC2)c(C(F)F)c1F)C(F)(F)F [Example 12, (S)-3-(Difluoromethyl)-2-fluoro-4-(4-(4-fluoropiperidine-1-carbonyl)-2-(5-(2-hydroxy-2-methylpropyl)-1,2,4-oxadiazol-3-yl)thiazol-5-yl)-N-(1,1,1-trifluorobutan-2-yl)benzenesulfonamide] | 68 | 103 | 9.4 | –
CC[C@H](NS(=O)(=O)c1ccc(-c2sc(-c3noc(CC(C)(C)C(=O)O)n3)nc2C(=O)N2CC(F)(F)C[C@@H]2C)c(C(F)F)c1Cl)C(F)(F)F [Example 10/3, 3-(3-(5-(3-Chloro-2-(difluoromethyl)-4-(N—((S)-1,1,1-trifluorobutan-2-yl)sulfamoyl)phenyl)-4-((S)-4,4-difluoro-2-methylpyrrolidine-1-carbonyl)thiazol-2-yl)-1,2,4-oxadiazol-5-yl)-2,2-dimethylpropanoic acid] | 50 | 97 | 0.0036 | –
C[C@H](NS(=O)(=O)c1ccc(-c2sc(-c3nnc(C(C)(C)O)o3)nc2C(=O)N2CCCC[C@@H]2C)c(C(F)F)c1F)C(F)(F)F [Example 6/18, 3-(Difluoromethyl)-2-fluoro-4-(2-(5-(2-hydroxypropan-2-yl)-1,3,4-oxadiazol-2-yl)-4-((S)-2-methylpiperidine-1-carbonyl)thiazol-5-yl)-N—((S)-1,1,1-trifluoropropan-2-yl)benzenesulfonamide] | 82 | 104 | 1 | –
C[C@H](NS(=O)(=O)c1ccc(-c2sc(-c3nnc(C(C)(C)O)o3)nc2C(=O)N2CCC(F)(F)CC2)c(Cl)c1F)C(F)(F)F [Example 8/1, (S)-3-Chloro-4-(4-(4,4-difluoropiperidine-1-carbonyl)-2-(5-(2-hydroxypropan-2-yl)-1,3,4-oxadiazol-2-yl)thiazol-5-yl)-2-fluoro-N-(1,1,1-trifluoropropan-2-yl)benzenesulfonamide] | 61 | 108 | 5.6 | –
C[C@H](NS(=O)(=O)c1ccc(-c2sc(-c3cc(C(C)(C)O)on3)nc2C(=O)N2CCC(F)CC2)c(Cl)c1Cl)C(F)(F)F [Example 13/1, (S)-2,3-Dichloro-4-(4-(4-fluoropiperidine-1-carbonyl)-2-(5-(2-hydroxypropan-2-yl)isoxazol-3-yl)thiazol-5-yl)-N-(1,1,1-trifluoropropan-2-yl)benzenesulfonamide] | 21 | – | 4.9 | 101
C[C@H]1CCCCN1C(=O)c1nc(-c2noc(CC(C)(C)C(=O)O)n2)sc1-c1ccc(C(O)(C(F)(F)F)C(F)(F)F)c(Cl)c1Cl [Example 20, (S)-3-(3-(5-(2,3-Dichloro-4-(1,1,1,3,3,3-hexafluoro-2-hydroxypropan-2-yl)phenyl)-4-(2-methylpiperidine-1-carbonyl)thiazol-2-yl)-1,2,4-oxadiazol-5-yl)-2,2-dimethylpropanoic acid] | 12 | – | 0.026 | 101
CC(C)(O)c1nnc(-c2nc(C(=O)N3CC(F)(F)CC3(C)C)c(-c3ccc(S(=O)(=O)NC4(C(F)F)CC4)c(F)c3Cl)s2)o1 [Example 6/22, 3-Chloro-4-(4-(4,4-difluoro-2,2-dimethylpyrrolidine-1-carbonyl)-2-(5-(2-hydroxypropan-2-yl)-1,3,4-oxadiazol-2-yl)thiazol-5-yl)-N-(1-(difluoromethyl)cyclopropyl)-2-fluorobenzenesulfonamide] | 1600 | 74 | 1200 | –
CC[C@H](NS(=O)(=O)c1ccc(-c2sc(-c3nnc(CC(C)(C)C#N)o3)nc2C(=O)N2CCC(F)CC2)c(Cl)c1Cl)C(F)(F)F [Example 1/1, (S)-2,3-Dichloro-4-(2-(5-(2-cyano-2-methylpropyl)-1,3,4-oxadiazol-2-yl)-4-(4-fluoropiperidine-1-carbonyl)thiazol-5-yl)-N-(1,1,1-trifluorobutan-2-yl)benzenesulfonamide] | 10 | 106 | 1 | –

From patent US9845319B2, “Amide substituted thiazoles as modulators of RORyt” (Janssen Pharmaceutica NV, priority 2014, dated 2017)
